What was measured:
ovarietomized rats = conditions: 3.2 mg/kg B.W. daily oral supplement, 5 months; cited from earlier work
[1] = Weight changes in ovariectomized rat model; format: in vivo, Wistar rats; conditions: ovariectomized rats; for effect on weight gain caused by estrogen deficiency: 12 weeks
Protocol: 12-week-old female Wistar rats were used. All of experimental rats were purchased from BioLASCO Taiwan Co., Ltd. The rats were housed in the Experimental Animal Center of Taipei Medical University. The animal room was maintained under temperature of 21-24° C., relative humidity of 30-70%, and 12 hours of automatic light for alternating dark and bright. During the experimental periods, the animals were given adequate drinking water and fed with standard feed. The feeding and surgery were in accordance with the regulations of the Institutional Animal Care and Use Committee (IACUC) of Taipei Medical University.
(§1) For ovariectomy rats, bilateral ovariectomy surgery was conducted at 12-week-old under anesthesia with Zoletil 50 (Tiletamine 20-40 mg/kg+Zolazepam 5-10 mg/kg) and Rompun, following the FDA Guidelines and Animal Models for Osteoporosis. For sham surgery rats, set as control group, the surgery performed surgical incision without removing the ovaries was also conducted at 12-week-old under anesthesia with Zoletil 50 (Tiletamine 20-40 mg/kg+Zolazepam 5-10 mg/kg) and Rompun. After ovariectomy surgery, 24 rats of ovariectomy group were randomly divided into 4 groups, namely, 6 rats in each group. After 2 weeks of surgery, the rats were oral administered once a day with different samples based on their groups. The rats were weighed once a week as the basis for the dose of administration for 12 weeks and the weight data were recorded. Finally, when sacrificed, the ovarian of the rats were checked to determine whether the ovariectomy surgery was successful or not, wherein the data of failed ovariectomy rat(s) would be eliminated.
(§2) Total 30 rats were grouped into following 5 groups (i.e., “SHAM”, “OVX”, “G7P”, “G7P2X”, “E2”). • a. SHAM group: sham surgery rats, set as control group, fed with sterile water by oral gavage; • b. OVX group: ovariectomized rats, set as negative control, fed with sterile water by oral gavage; • c. G7P group: ovariectomized rats, administered with 5.33 mg/kg B.W. G7P solution once per day by oral gavage, wherein the dosage was equal to 40 mg/day of the amount of soy isoflavones for adult; • d. G7P2X group: ovariectomized rats, administered with 10.66 mg/kg B.W. G7P once per day by oral gavage, wherein the dosage was equal to 80 mg/day of the amount of soy isoflavones for adult; • e. E2 group: ovariectomized rats, set as positive control, administered with 200 μg/kg B.W. […] once per day by tube feeding.

ovariectomized rats [2] = assay: Bone index test (in vivo micro-CT scan of caput femoris); parameters: species or system Wistar rats; conditions: for BMD level compared with OVX group: week 12
Protocol: as §1, §2
At week 0, 3, 6, 9 and 12 of the experimental period, in vivo micro-CT scan were conducted on the caput femoris of right leg of the rats by animal CT scanner system Sky Scan 1176 to obtain the 3D tomography image. The obtained 3D tomography images were further analyzed by software so as to obtain bone index data. The data include bone mineral density (BMD) and bone volume-to-total volume ratio (bone volume/total volume, BV/TV, %).

ovariectomized rats [3] = assay: Bone mechanics analysis (three-point bending test of femur); format: in vivo, Wistar rats; conditions: week 12
Protocol: as §1, §2
The bio-mechanical strength of femur was measured using bio-mechanical testing instrument (RT1-TST, Royalty Tec.Ins. Ltd) after removing the soft tissue of left leg. First, the length of the femur was measured by the electronic vernier and the mid-position of the femur was set so as to be the scale standard which must be aligned when compressing the vertical physical strength of the femur by the bone stress meter. The femur was kept moist with physiological saline and fixed on a test bench for a three-point bending test. The motor revolution speed of the bone stress meter was set at 0.05 mm/sec. After the femur was compressed to fracture, the parameters of the bone mechanics analysis obtained by the test system were as follows:
a. maximal load: the force converted from the maximum weight of the record, the unit is Newton;
b. maximal energy: the area integratal under the record curve, the unit is mJ;
d. Young's modulus or elastic modulus (E).

ovariectomized rats [4] = assay: Histopathological observation (H&E staining, caput femoris); format: in vivo, Wistar rats
Protocol: as §1
Total 30 rats were grouped into following 5 groups (i.e., “SHAM”, “OVX”, “G7P”, “G7P2X”, “E2”). • a. SHAM group: sham surgery rats, set as control group, fed with sterile water by oral gavage; • b. OVX group: ovariectomized rats, set as negative control, fed with sterile water by oral gavage; • c. […]

[5] = estradiol 200 μg/kg B.W. once per day oral (E2 group)
[6] = estradiol 200 μg/kg B.W. once per day by tube feeding (E2 group)
[7] = G7P 5.33 mg/kg B.W. once per day oral (G7P group)
[8] = G7P 10.66 mg/kg B.W. once per day oral (G7P2X group)
[9] = G7P 5.33 mg/kg B.W. once per day oral gavage (G7P group)
[10] = G7P 10.66 mg/kg B.W. once per day oral gavage (G7P2X group)

Structure (SMILES): O=c1c(-c2ccc(O)cc2)coc2cc(O)cc(O)c12 [genistein]
- effect on bone mass, density or architecture (ovarietomized rats): had no effect on bone mass, density or architecture

Structure (SMILES): C[C@]12CC[C@@H]3c4ccc(O)cc4CC[C@H]3[C@@H]1CC[C@@H]2O [E2, 1743 estradiol, reference compound]
- effect on weight gain caused by estrogen deficiency [1, 5]: could reduce the weight gain
- BV/TV compared with OVX group (ovariectomized rats [2]; [5]): higher than that of the OVX group with statistical significance
- trabecular structure in μCT 3D imaging (ovariectomized rats [2]; [5]): a wide but loose trabecular distribution
- BMD level compared with OVX group (ovariectomized rats [2]; [5]): significantly higher than that of the OVX group
- Max Energy (ovariectomized rats [3]; [6]): 76.1 ± 20.3 mJ
- Stiffness (ovariectomized rats [3]; [6]): 307.6 ± 55.1 N/mm
- applied load (ovariectomized rats [3]; [6]): 176.8 ± 12.1 N

Structure (SMILES): O=c1c(-c2ccc(O)cc2)coc2cc(OP(=O)(O)O)cc(O)c12 [G7P, genistein 7-O-phophate]
- effect on weight gain caused by estrogen deficiency [1, 7]: did not reverse the weight gain
- body weight ([1]; G7P 5.33 mg/kg B.W. once per day oral (G7P group), week 12 after surgery): ~400 g
- effect on weight gain caused by estrogen deficiency [1, 8]: did not reverse the weight gain
- BV/TV compared with OVX group (ovariectomized rats [2]; [7]): higher than that of the OVX group with statistical significance
- trabecular structure in μCT 3D imaging (ovariectomized rats [2]; [7]): much integrated than that of the OVX group
- BMD level compared with OVX group (ovariectomized rats [2]; [7]): significantly higher than that of the OVX group
- BV/TV compared with OVX group (ovariectomized rats [2]; [8]): higher than that of the OVX group with statistical significance
- trabecular structure in μCT 3D imaging (ovariectomized rats [2]; [8]): much integrated than that of the OVX group
- BMD level compared with OVX group (ovariectomized rats [2]; [8]): significantly higher than that of the OVX group
- Elastic modulus (ovariectomized rats [3]; [9]): 21.8 ± 2.6 MPa
- Max Energy (ovariectomized rats [3]; [9]): 74.4 ± 6.8 mJ
- Stiffness (ovariectomized rats [3]; [9]): 326.2 ± 43.2 N/mm
- applied load (ovariectomized rats [3]; [9]): 186.5 ± 5.9 N
- Elastic modulus (ovariectomized rats [3]; [10]): 22.8 ± 6.1 MPa
- Max Energy (ovariectomized rats [3]; [10]): 82.7 ± 22.8 mJ
- Stiffness (ovariectomized rats [3]; [10]): 319.1 ± 6.1 N/mm
- applied load (ovariectomized rats [3]; [10]): 197.5 ± 20.6 N
- bone mineral retention and trabecular bone density in H&E slide (ovariectomized rats [4]; [7]): good
- bone mineral retention and trabecular bone density in H&E slide (ovariectomized rats [4]; [8]): good

— patent US10881634B2, “Method for treatment or prevention of a disease associated with a decrease in bone mass and method of improving bone architecture and bio mechanical strength of bone” (HUGHES BIOTECHNOLOGY CO., LTD, priority 2017, dated 2021)
